# Target: factor Xa (Homo sapiens, UniProt P00742)
# Test: Inhibitory action towards factor Xa activity (methods of WO0216312)
# Format: biochemical
# Details: read-out: IC50 value (factor Xa inhibition)
# Protocol: Determinations of the inhibitory action towards factor Xa activity were carried out in accordance with the methods described in WO0216312.
# factor Xa, sequence (P00742 235-488 limits assumed): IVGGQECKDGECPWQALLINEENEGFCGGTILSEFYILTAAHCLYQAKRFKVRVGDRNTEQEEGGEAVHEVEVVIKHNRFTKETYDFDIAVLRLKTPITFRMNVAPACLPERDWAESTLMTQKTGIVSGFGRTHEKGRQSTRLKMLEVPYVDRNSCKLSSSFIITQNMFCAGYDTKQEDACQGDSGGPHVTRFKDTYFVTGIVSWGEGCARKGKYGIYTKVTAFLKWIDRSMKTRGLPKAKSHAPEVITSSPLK
# factor Xa, sequence (P00742 41-179 partner limits assumed): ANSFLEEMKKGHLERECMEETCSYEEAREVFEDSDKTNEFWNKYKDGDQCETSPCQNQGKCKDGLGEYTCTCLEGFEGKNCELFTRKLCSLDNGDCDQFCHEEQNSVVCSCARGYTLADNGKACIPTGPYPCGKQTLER
smiles,measurement,value
"CN1CCN(C(=O)CNC(=O)C(Nc2cccc(C(=N)N)c2)c2ccccc2O[C@@H]2O[C@H](CO)[C@@H](O)[C@H](O)[C@H]2O)CC1 (single isomer, unassigned) [Example 1, 2-(3-Carbamimidoyl-phenylamino)-N-[2-(4-methyl-piperazin-1-yl)-2-oxo-ethyl]-2-[2-(3,4,5-trihydroxy-6-hydroxymethyl-tetrahydro-pyran-2-yloxy)-phenyl]-acetamide]",IC50,0.1 to 10 nM

# Reference: US20080051388A1, “Novel Compounds That Inhibit Factor Xa Activity” (Morphochem Aktiengesellschaft Fur Kombinatorische Chemie, priority 2004, published 2008)
